We go through three molecules from patent US20180258123A1, “Suppressors of Premature Termination Codons as Therapeutics and Methods for Their Use” (The University of British Columbia, priority 2015, published 2018).

For data set [1], the system named is HDQ-P1 cells, full-length p53. Briefly: p53 read-through assay with steroids (western blotting, FIG. 4). Format: cell-based, human. Here is the method:
HDQ-P1 cells were seeded at 100,000 cells per well of TC-treated 6-well plates. The next day, the medium was replaced with fresh medium containing compounds to be tested and were incubated for 48 to 96 h. The medium was removed by aspiration, cell monolayers were rinsed with 1 ml ice-cold PBS. Cells were lysed in 80 μl lysis buffer (20 mM Tris-HCl pH 7.5, 150 mM NaCl, 1 mM EDTA, 1 mM EGTA, 1% (v/v) Triton […], 2.5 mM sodium pyrophosphate, 1 mM beta-glycerophosphate supplemented with fresh 1 mM Na3VO4, 1 mM dithiothreitol and 1× complete protease inhibitor cocktail (Roche Molecular BiochemicalsTM)). Lysates were pre-cleared by centrifugation at 18,000 g for 15 min at 4° C. Supernatants were collected, protein was quantitated using the Bradford assay and lysates were adjusted to 1 mg/ml protein. Capillary electrophoresis and western analysis conditions were carried out with manufacturer's reagents according to the user manual (ProteinSimple WESTM). Briefly, 5.6 μl of cell lysate was mixed with 1.4 μl fluorescent master mix and heated at 95° C. for 5 min. The samples, blocking reagent, wash buffer, DO-1 p53 antibody (0.5 μg/ml) and vinculin antibody (1:2000, R&D clone 728526), secondary antibody and chemiluminescent substrate were dispensed into the microplate provided by the manufacturer. […] The data was analyzed with inbuilt CompassTM software (ProteinsimpleTM). […]
On the technique in general: Immunoblotting shows a protein as a band on a membrane.

A short description of data set [2]: Toxicity observed in the in vivo read-through study. Conditions: 400 mg/kg intraperitoneal; mice sacrificed shortly after administration.
Experimental: Methods for FIG. 8: Two million NCI-H1299 human non-small cell lung carcinoma cells stably expressing a TP53 expression construct bearing the R213X (TGA) nonsense mutation were implanted subcutaneously on the lower back of immunocompromised NRG (NOD-Rag1^null IL2rg^null) mice. […] 48 hours after the last injection, the mice were sacrificed and the amounts of truncated p53 and full-length p53 were determined by western analysis. […] Vinculin was used as a protein loading control.
For data set [3] the following is noted: cited from earlier work.

For the molecule `CC(=O)O[C@]1(C(C)=O)CC[C@H]2[C@@H]3C[C@H](C)C4=CC(=O)CC[C@]4(C)[C@H]3CC[C@@]21C` [Medroxy pro, Medroxyprogesterone acetate], in data set [1], the “read-through activity of steroid alone” value is “no read-through activity”.

Consider Gentamicin [reference compound], for which the toxicity entry in data set [2] is “induced acute toxicity”. Besides, the nephrotoxicity and ototoxicity result in data set [3] (in vivo) was “nephrotoxic and ototoxic”.

In the case of `CN[C@@H]1[C@@H](O)[C@@H](O[C@@H]2[C@@H](O)[C@H](O[C@H]3O[C@H]([C@@H](C)N)CC[C@H]3N)[C@@H](N)C[C@H]2N)OC[C@]1(C)O` [Gentamicin C2], the “nephrotoxicity of the major gentamicins” value in data set [3] (Kohlhepp S. J. et al. 1984) is “nephrotoxicity was caused mainly by C2”.
